Results published in US9637451B2, “Indole compound” (ASTELLAS PHARMA INC., priority 2014, dated 2017).

How the values were obtained:
[1] = target: T1, human MT2 receptor (Homo sapiens, UniProt P49286); assay: Activation of human MT2 receptor in receptor-expressing cells, intracellular Ca2+ by FLIPR; type: cell-based; conditions: for EC50: HEK293 cells stably expressing human MT2 and Gq/i chimeric G protein, Ca2+ FLIPR; for Emax: maximum reaction by ramelteon taken as 100%
T1 construct: expressed in transfected cells
T1 sequence (P49286 1-362): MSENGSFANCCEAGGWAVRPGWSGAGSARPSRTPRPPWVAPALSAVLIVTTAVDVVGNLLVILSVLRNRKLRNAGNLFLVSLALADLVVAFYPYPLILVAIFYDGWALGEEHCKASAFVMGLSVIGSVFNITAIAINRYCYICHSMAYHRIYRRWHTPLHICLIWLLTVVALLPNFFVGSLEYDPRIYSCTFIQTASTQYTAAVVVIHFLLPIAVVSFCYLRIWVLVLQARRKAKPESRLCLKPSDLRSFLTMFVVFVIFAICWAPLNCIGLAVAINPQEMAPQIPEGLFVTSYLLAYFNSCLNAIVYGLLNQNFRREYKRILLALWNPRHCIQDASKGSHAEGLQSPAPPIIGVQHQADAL

[2] = target: T2, human MT1 receptor (Homo sapiens, UniProt P48039); assay: Activation of human MT1 receptor in receptor-expressing cells, intracellular Ca2+ by FLIPR; type: cell-based; conditions: for EC50: HEK293EBNA1 cells stably expressing human MT1 and Gq/i chimeric G protein, Ca2+ FLIPR; for Emax: maximum reaction by ramelteon taken as 100%
T2 construct: expressed in transfected cells
T2 sequence (P48039 whole entry): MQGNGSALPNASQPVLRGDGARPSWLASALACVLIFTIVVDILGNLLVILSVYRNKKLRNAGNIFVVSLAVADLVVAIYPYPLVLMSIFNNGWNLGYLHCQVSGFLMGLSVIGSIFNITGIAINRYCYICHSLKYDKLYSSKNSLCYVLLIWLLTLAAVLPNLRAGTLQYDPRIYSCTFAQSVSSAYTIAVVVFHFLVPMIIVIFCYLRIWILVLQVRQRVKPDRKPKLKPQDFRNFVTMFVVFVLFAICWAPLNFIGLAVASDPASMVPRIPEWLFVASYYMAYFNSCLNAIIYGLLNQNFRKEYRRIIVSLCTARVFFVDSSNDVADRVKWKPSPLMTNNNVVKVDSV

Row | Compound | EC50 [1] [nM] | Emax [1] [%] | EC50 [2] [nM] | Emax [2] [%]
1 | CC(=O)NCCc1c[nH]c2ccc(OCCOc3ccn(C)n3)cc12 [Example 2, N-[2-(5-{2-[(1-methyl-1H-pyrazol-3-yl)oxy]ethoxy}-1H-indol-3-yl)ethyl]acetamide] | 17 | 125 | 7 | 125
2 | CC(=O)NCCc1c[nH]c2ccc(OCCOc3cnccn3)cc12 [Example 3, N-(2-{5-[2-(pyrazin-2-yloxy)ethoxy]-1H-indol-3-yl}ethyl)acetamide] | 51 | 127 | 9.9 | 94
3 | CC(=O)NCCc1c[nH]c2ccc(OCCc3csc(C)n3)cc12 [Example 20] | 7.7 | 119 | 4.1 | 115
4 | CNC(=O)NCCc1c[nH]c2ccc(OCCc3nc(C)sc3C)cc12 [Example 21] | 44 | 59 | 7 | 103
5 | CNC(=O)NCCc1c[nH]c2cc(F)c(OCCc3csc(C)n3)cc12 [Example 26] | 9.8 | 106 | 8.8 | 97
6 | COc1ncc(OCCOc2ccc3[nH]cc(CCNC(C)=O)c3c2)cc1F [Example 32] | 50 | 66 | 3.4 | 96
7 | COc1ncc(OCCOc2cc3c(CCNC(C)=O)c[nH]c3cc2F)cc1F [Example 33] | 60 | 53 | 4.3 | 103
8 | CC(=O)NCC(C)c1c[nH]c2ccc(OCCOc3ccn(C)n3)cc12 (centres unmarked) [Example 34] | 10 | 125 | 4.3 | 93
9 | CC(=O)NCC(C)(C)c1c[nH]c2cc(F)c(OCCOc3ccn(C)n3)cc12 [Example 35] | 8.3 | 114 | 3.7 | 94
10 | COc1ccc(OCCOc2cc3c([C@@H](C)CNC(C)=O)c[nH]c3cc2F)cn1 [Example 40] | 160 | 42 | 6.3 | 81
11 | CCCC(=O)NCCc1c[nH]c2ccc(OCCOc3ccn(C)n3)cc12 [Example 41] | 26 | 93 | 11 | 75
12 | Cn1ccc(OCCOc2ccc3[nH]cc(CCNC(=O)C(F)F)c3c2)n1 [Example 42] | 12 | 103 | 7.9 | 97
13 | Cn1ccc(OCCOc2cc3c(CCNC(=O)C(F)F)c[nH]c3cc2F)n1 [Example 44] | 4.5 | 102 | 3.3 | 103
14 | CCC(=O)NCCc1c[nH]c2cc(F)c(OCCOc3ccc(OC)nc3)cc12 [Example 46] | 6.3 | 76 | 3.4 | 78
15 | CNC(=O)NCCc1c(C)[nH]c2ccc(OCCOc3cnc(OC)c(F)c3)cc12 [Example 48] | 56 | 106 | 8.4 | 92
16 | CC(=O)NCCc1c[nH]c2ccc(OCCOc3cncc(Br)c3)cc12 [Example 49] | 11 | 119 | 5.6 | 102

Row | Compound | EC50 [1] [nM] | Emax [1] [%] | EC50 [2] [nM] | Emax [2] [%]
17 | CNC(=O)NCCc1c[nH]c2ccc(OCCOc3cncc(Br)c3)cc12 [Example 50] | 6.4 | 111 | 8.5 | 89
18 | CC(=O)NCCc1c[nH]c2ccc(OCCOc3ccnc(Cl)c3)cc12 [Example 51] | 4.7 | 108 | 5.3 | 95
19 | CNC(=O)NCCc1c[nH]c2ccc(OCCOc3ccnc(Cl)c3)cc12 [Example 52] | 5.6 | 117 | 10 | 92
20 | CNC(=O)NCCc1c[nH]c2ccc(OCCOc3cccc(OC)n3)cc12 [Example 53] | 4.8 | 99 | 1 | 112
21 | COc1cccc(OCCOc2ccc3[nH]cc(CCNC(C)=O)c3c2)n1 [Example 54] | 2.6 | 109 | 0.77 | 111
22 | CC(=O)NCCc1c[nH]c2ccc(OCCOc3cncc(Cl)c3)cc12 [Example 55] | 9.1 | 133 | 8 | 109
23 | CNC(=O)NCCc1c[nH]c2ccc(OCCOc3cncc(Cl)c3)cc12 [Example 56] | 9.9 | 125 | 15 | 92
24 | CC(=O)NCCc1c[nH]c2ccc(OCCOc3cncc(F)c3)cc12 [Example 57] | 13 | 114 | 12 | 94
25 | CNC(=O)NCCc1c[nH]c2ccc(OCCOc3cccc(C)n3)cc12 [Example 58] | 3.4 | 99 | 1.2 | 99
26 | CC(=O)NCCc1c[nH]c2ccc(OCCOc3ccnc(C)c3)cc12 [Example 59] | 9.6 | 99 | 6.6 | 120
27 | CC(=O)NCCc1c[nH]c2ccc(OCCOc3cccc(C4CC4)n3)cc12 [Example 60] | 9.2 | 104 | 7.2 | 94
28 | CCCc1cccc(OCCOc2ccc3[nH]cc(CCNC(C)=O)c3c2)n1 [Example 61] | 5.4 | 92 | 6.9 | 84
29 | CC(=O)NCCc1c[nH]c2ccc(OCCOc3nccc(C(F)(F)F)n3)cc12 [Example 62] | 16 | 118 | 11 | 101
30 | CC(=O)NCCc1c[nH]c2ccc(OCCOc3ccon3)cc12 [Example 63] | 9 | 105 | 9.7 | 90
31 | CC(=O)NCCc1c[nH]c2ccc(OCCOc3ccccn3)cc12 [Example 64] | 2.1 | 116 | 1.6 | 102

Second part, the compound after the results:

Row | EC50 [1] [nM] | Emax [1] [%] | EC50 [2] [nM] | Emax [2] [%] | Compound
32 | 18 | 93 | 7.7 | 96 | CCOC(=O)NCCOc1ccc2[nH]c(C)c(CCNC(C)=O)c2c1 [Example 12]
33 | 100 | 82 | 10 | 100 | COc1ccc(OCCOc2cc3c(CCNC(C)=O)c(C)[nH]c3cc2F)cn1 [Example 16]
34 | 33 | 91 | 5.9 | 84 | COC(=O)NCCOc1ccc2[nH]c(C)c(CCNC(C)=O)c2c1 [Example 17]
35 | 17 | 91 | 5.7 | 94 | COC(=O)NCCOc1cc2c(CCNC(C)=O)c(C)[nH]c2cc1F [Example 19]
36 | 8.7 | 95 | 7.3 | 105 | CC(=O)NCCc1c(C)[nH]c2cc(F)c(OCCn3ccc(C)n3)cc12 [Example 22]
37 | 18 | 71 | 13 | 99 | CC(=O)NCCc1c[nH]c2cc(F)c(OCCn3cc(Cl)cn3)cc12 [Example 24]
38 | 2.9 | 96 | 1.5 | 105 | CC(=O)NCCc1c[nH]c2cc(F)c(OCCc3csc(C)n3)cc12 [Example 25]
39 | 10 | 82 | 8.7 | 83 | CCc1ccn(CCOc2cc3c(CCNC(C)=O)c[nH]c3cc2F)n1 [Example 27]
40 | 35 | 62 | 6.8 | 119 | COc1ccc(OCCOc2cc3c(CCNC(C)=O)c[nH]c3cc2F)cn1 [Example 28]
41 | 24 | 112 | 10 | 100 | CC(=O)NCCc1c(C)[nH]c2ccc(OCCn3ccc(C)n3)cc12 [Example 29]
42 | 15 | 110 | 4.8 | 106 | CNC(=O)NCCc1c(C)[nH]c2ccc(OCCn3ccc(C)n3)cc12 [Example 30]
43 | 15 | 96 | 6 | 101 | CC(=O)NCC(C)(C)c1c[nH]c2cc(F)c(OCCn3ccc(C)n3)cc12 [Example 36]
44 | 51 | 49 | 7.2 | 104 | CC(=O)NC[C@H](C)c1c[nH]c2cc(F)c(OCCn3ccc(C)n3)cc12 [Example 39]
45 | 7.1 | 104 | 5.3 | 110 | CCC(=O)NCCc1c[nH]c2cc(F)c(OCCOc3ccn(C)n3)cc12 [Example 43]
46 | 14 | 127 | 2.3 | 99 | CCC(=O)NCCc1c(C)[nH]c2cc(F)c(OCCOc3ccn(C)n3)cc12 [Example 45]
47 | 41 | 145 | 9.8 | 124 | CNC(=O)NCCc1c(C)[nH]c2cc(F)c(OCCOc3ccn(C)n3)cc12 [Example 47]
